Tested on: rodent lifetime carcinogenesis bioassay, tumor incidence TD50
Assay: chronic cancer bioassays in animals – CPDB, compiled studies (AID 1745844)
Details: rat

C=CCl
TD50 (strain Charles River CD (Sprague-Dawley), females, inhaled, site: liver, lesion: hemangiosarcoma, dosed 26 weeks, study length 78 weeks): 115 mg/kg/day | TD50 (strain Charles River CD (Sprague-Dawley), females, inhaled, site: liver, lesion: hemangiosarcoma, dosed 43 weeks, study length 95 weeks): 69.5 mg/kg/day | TD50 (strain Charles River CD (Sprague-Dawley), females, inhaled, site: liver, lesion: hepatocellular carcinoma, dosed 43 weeks, study length 95 weeks): 225 mg/kg/day | TD50 (strain Charles River CD (Sprague-Dawley), females, inhaled, site: liver, lesion: neoplastic nodule, dosed 43 weeks, study length 95 weeks): 315 mg/kg/day | TD50 (strain Charles River CD (Sprague-Dawley), males, inhaled, site: liver, lesion: hemangiosarcoma, dosed 43 weeks, study length 95 weeks): 103 mg/kg/day | TD50 (strain Charles River CD (Sprague-Dawley), males, inhaled, site: liver, lesion: hepatocellular carcinoma, dosed 26 weeks, study length 78 weeks): 52.9 mg/kg/day | TD50 (strain Charles River CD (Sprague-Dawley), males, inhaled, site: liver, lesion: hepatocellular carcinoma, dosed 43 weeks, study length 95 weeks): 265 mg/kg/day | TD50 (strain Charles River CD (Sprague-Dawley), males, inhaled, site: liver, lesion: neoplastic nodule, dosed 26 weeks, study length 78 weeks): 11.5 mg/kg/day | TD50 (strain Charles River CD (Sprague-Dawley), males, inhaled, site: liver, lesion: neoplastic nodule, dosed 43 weeks, study length 95 weeks): 34.6 mg/kg/day | TD50 (strain Fischer 344, females, inhaled, site: all sites, lesion: hemangiosarcoma, dosed 26 weeks, study length 104 weeks): 91.2 mg/kg/day | TD50 (strain Fischer 344, females, inhaled, site: all sites, lesion: hemangiosarcoma, dosed 52 weeks, study length 104 weeks): 29.5 mg/kg/day | TD50 (strain Fischer 344, females, inhaled, site: all sites, lesion: hemangiosarcoma, dosed 78 weeks, study length 104 weeks): 32.8 mg/kg/day | TD50 (strain Fischer 344, females, inhaled, site: all sites, lesion: hemangiosarcoma, dosed 104 weeks, study length 104 weeks): 23.6 mg/kg/day | TD50 (strain Fischer 344, females, inhaled, site: liver, lesion: hepatocellular carcinoma, dosed 26 weeks, study length 104 weeks): 103 mg/kg/day | TD50 (strain Fischer 344, females, inhaled, site: liver, lesion: hepatocellular carcinoma, dosed 52 weeks, study length 104 weeks): 101 mg/kg/day | TD50 (strain Fischer 344, females, inhaled, site: liver, lesion: hepatocellular carcinoma, dosed 78 weeks, study length 104 weeks): 65.2 mg/kg/day | TD50 (strain Fischer 344, females, inhaled, site: liver, lesion: hepatocellular carcinoma, dosed 104 weeks, study length 104 weeks): 77.2 mg/kg/day | TD50 (strain Fischer 344, females, inhaled, site: liver, lesion: neoplastic nodule, dosed 26 weeks, study length 104 weeks): 17.6 mg/kg/day | TD50 (strain Fischer 344, females, inhaled, site: liver, lesion: neoplastic nodule, dosed 52 weeks, study length 104 weeks): 16.2 mg/kg/day | TD50 (strain Fischer 344, females, inhaled, site: liver, lesion: neoplastic nodule, dosed 78 weeks, study length 104 weeks): 96.3 mg/kg/day | TD50 (strain Fischer 344, females, inhaled, site: liver, lesion: neoplastic nodule, dosed 104 weeks, study length 104 weeks): 166 mg/kg/day | TD50 (strain Fischer 344, females, inhaled, site: mammary gland, lesion: adenocarcinoma, dosed 52 weeks, study length 104 weeks): 38 mg/kg/day | TD50 (strain Fischer 344, females, inhaled, site: mammary gland, lesion: adenocarcinoma, dosed 78 weeks, study length 104 weeks): 74.2 mg/kg/day | TD50 (strain Fischer 344, females, inhaled, site: mammary gland, lesion: adenocarcinoma, dosed 104 weeks, study length 104 weeks): 264 mg/kg/day | TD50 (strain Fischer 344, females, inhaled, site: mammary gland, lesion: fibroadenoma, dosed 26 weeks, study length 104 weeks): 15.1 mg/kg/day | TD50 (strain Fischer 344, females, inhaled, site: mammary gland, lesion: fibroadenoma, dosed 52 weeks, study length 104 weeks): 14.6 mg/kg/day | TD50 (strain Fischer 344, females, inhaled, site: mammary gland, lesion: fibroadenoma, dosed 78 weeks, study length 104 weeks): 29.7 mg/kg/day | TD50 (strain Fischer 344, females, inhaled, site: mammary gland, lesion: fibroadenoma, dosed 104 weeks, study length 104 weeks): 32.9 mg/kg/day | TD50 (strain Sprague-Dawley, females, by gavage, site: Zymbal's gland, lesion: carcinoma, dosed 59 weeks, study length 129 weeks): 5.05 mg/kg/day | TD50 (strain Sprague-Dawley, females, by gavage, site: any site (literature study), lesion: several types, types named in the paper, dosed 52 weeks, study length 127 weeks): 35.2 mg/kg/day | TD50 (strain Sprague-Dawley, females, by gavage, site: any site (literature study), lesion: several types, types named in the paper, dosed 59 weeks, study length 129 weeks): 0.878 mg/kg/day | TD50 (strain Sprague-Dawley, females, by gavage, site: extrahepatic tissue, lesion: angioma, dosed 52 weeks, study length 127 weeks): 408 mg/kg/day | TD50 (strain Sprague-Dawley, females, by gavage, site: extrahepatic tissue, lesion: angiosarcoma, dosed 52 weeks, study length 127 weeks): 454 mg/kg/day | TD50 (strain Sprague-Dawley, females, by gavage, site: extrahepatic tissue, lesion: angiosarcoma, dosed 59 weeks, study length 129 weeks): 10.9 mg/kg/day | TD50 (strain Sprague-Dawley, females, by gavage, site: kidney, lesion: nephroblastoma, dosed 52 weeks, study length 127 weeks): 182 mg/kg/day | TD50 (strain Sprague-Dawley, females, by gavage, site: liver, lesion: angioma, dosed 52 weeks, study length 127 weeks): 207 mg/kg/day | TD50 (strain Sprague-Dawley, females, by gavage, site: liver, lesion: angiosarcoma, dosed 52 weeks, study length 127 weeks): 38.6 mg/kg/day | TD50 (strain Sprague-Dawley, females, by gavage, site: liver, lesion: angiosarcoma, dosed 59 weeks, study length 129 weeks): 3.58 mg/kg/day | TD50 (strain Sprague-Dawley, females, inhaled, site: Zymbal's gland, lesion: carcinoma, dosed 25 weeks, study length 127 weeks): 1200 mg/kg/day | TD50 (strain Sprague-Dawley, females, inhaled, site: Zymbal's gland, lesion: carcinoma, dosed 25 weeks, study length 135 weeks): 569 mg/kg/day | TD50 (strain Sprague-Dawley, females, inhaled, site: Zymbal's gland, lesion: carcinoma, dosed 52 weeks, study length 111 weeks): 67.9 mg/kg/day | TD50 (strain Sprague-Dawley, females, inhaled, site: Zymbal's gland, lesion: carcinoma, dosed 52 weeks, study length 139 weeks): 1070 mg/kg/day | TD50 (strain Sprague-Dawley, females, inhaled, site: Zymbal's gland, lesion: carcinoma, dosed 71 weeks, study length 71 weeks): 1190 mg/kg/day | TD50 (strain Sprague-Dawley, females, inhaled, site: any site (literature study), lesion: several types, types named in the paper, dosed 25 weeks, study length 127 weeks): 309 mg/kg/day | TD50 (strain Sprague-Dawley, females, inhaled, site: any site (literature study), lesion: several types, types named in the paper, dosed 25 weeks, study length 135 weeks): 51.5 mg/kg/day | TD50 (strain Sprague-Dawley, females, inhaled, site: any site (literature study), lesion: several types, types named in the paper, dosed 52 weeks, study length 111 weeks): 2.12 mg/kg/day | TD50 (strain Sprague-Dawley, females, inhaled, site: any site (literature study), lesion: several types, types named in the paper, dosed 52 weeks, study length 139 weeks): 37.4 mg/kg/day | TD50 (strain Sprague-Dawley, females, inhaled, site: any site (literature study), lesion: several types, types named in the paper, dosed 71 weeks, study length 71 weeks): 70.5 mg/kg/day | TD50 (strain Sprague-Dawley, females, inhaled, site: brain, lesion: neuroblastoma, dosed 25 weeks, study length 135 weeks): 3630 mg/kg/day | TD50 (strain Sprague-Dawley, females, inhaled, site: brain, lesion: neuroblastoma, dosed 52 weeks, study length 131 weeks): 4850 mg/kg/day | TD50 (strain Sprague-Dawley, females, inhaled, site: brain, lesion: neuroblastoma, dosed 71 weeks, study length 71 weeks): 184 mg/kg/day | TD50 (strain Sprague-Dawley, females, inhaled, site: extrahepatic tissue, lesion: angioma, dosed 25 weeks, study length 135 weeks): 2990 mg/kg/day
